Values after ≈ are worked out from the molar mass of the structure shown.
Tests used:
C. albicans = system: C. albicans; parameters: method as in ref 35 = [35]; 35. Naika H.R. Krishna V. Harish B.G. Khadeer Ahamed B.M. Mahadevan K.M. Antimicrobial Activity of Bioactive Constituents Isolated from the Leaves of Naravelia zeylanica (L.) DC Int. J. Res. Pharm. Bi; details: cited from earlier work
HeLa = system: HeLa; parameters: method as in PMID 35453556, PMID 21294076; details: cited from earlier work
Candida albicans = system: Candida albicans; parameters: method as in PMID 19844829, PMID 35453556; details: cited from earlier work
Bacillus subtilis = system: Bacillus subtilis; parameters: method as in ref 36 = [36]; 36. Koay Y.C. Wong K.C. Hasnah O. Ibrahim E.M.S. Mohammad Z.A. Chemical constituents and biological activities of Strobilanthes crispus L. Rec. Nat. Prod. 2013 7 59 64; details: cited from earlier work
[1] = system: Candida albicans ATCC 10231; test: Serial dilution microplate MIC (fungi); format: cell-based; details: Table 2
Procedure: The MIC value of the plant extracts and isolated compounds against one fungal and five bacterial strains (Salmonella Typhimurium ATCC 39183, Escherichia coli ATCC 25922, Pseudomonas aeruginosa ATCC 27853, Staphylococcus aureus ATCC 29213, Enterococcus faecalis ATCC 29212, and fungi culture, Candida albicans ATCC 10231) was assessed in triplicate using the serial dilution microplate method; acetone and DMSO were used as solvents. Bacterial cultures were grown in Mueller Hinton broth (Sigma Aldrich, St. Louis, MO, USA) overnight and adjusted to McFarland standard 1 (1 × 10^8 CFU/mL). Then, 100 µL of samples were transferred into the first well of a sterile 96-well microtiter plate, which contained 100 µL of water and a 1:1 serial dilution with sterilized distilled water was carried out. In each well, 100 µL of appropriately adjusted fungal or bacterial cultures were added, and the bacteria were subjected to final concentrations of 250–3.9 μg/mL for pure compounds and 2.5–0.02 mg/mL for crude extracts. Amphotericin-B and Gentamicin (Virbac, Carros, France) served as positive controls for fungi and bacteria, respectively. For sterility, water served as control, while acetone served as a negative control. The microplates were then incubated for 24 h at 37 °C. Following incubation, 40 µL of 0.2 mg/mL p-iodonitrotetrazolium violet (INT, Sigma Aldrich) dissolved in water (hot) was added to the wells before being incubated at 37 °C for another 2 h. In the case of fungi, the INT was added before incubation. The MIC was measured visually as the lowest concentration of the compounds/extracts that inhibited proliferation.

T. mentagrophytes = system: T. mentagrophytes; parameters: method as in PMID 19844829, PMID 35453556; details: cited from earlier work
[2] = system: Aspergillus niger, Aspergillus flavus, Rhizoctonia phaseoli, and Penicillium chrysogenum; parameters: method as in ref 38 = [38]; 38. ur Rahman U. Durrani S. Ubaidullah S.A. ur Rahman S. Anti-pyretic activity of taraxerol acetate KJMS 2016 9 165; details: 1 mg/disc; cited from earlier work
T. rubrum = system: T. rubrum; parameters: method as in PMID 19844829, PMID 35453556; details: cited from earlier work
Klebsiella pneumoniae = system: Klebsiella pneumoniae; parameters: method as in ref 36 = [36]; 36. Koay Y.C. Wong K.C. Hasnah O. Ibrahim E.M.S. Mohammad Z.A. Chemical constituents and biological activities of Strobilanthes crispus L. Rec. Nat. Prod. 2013 7 59 64; details: cited from earlier work

In the case of `CC1(C)CC[C@]2(C)CC=C3[C@]4(C)CC[C@H]5C(C)(C)[C@@H](O)CC[C@]5(C)[C@H]4CC[C@@]3(C)[C@@H]2C1` [Compound 3β-Taraxerol, 3β-taraxerol], the “Activity against C. albicans” value (C. albicans) is given as “no activity”, the “Cytotoxicity HeLa” value (HeLa) is given as “inactive” and the “MIC Candida albicans” value (Candida albicans) is given as 25 µg/mL (≈ 58.6 µM). The “MIC Bacillus subtilis” value (Bacillus subtilis) was 15.6 µg/mL (≈ 36.6 µM), the MIC ([1]; Candida albicans, ATCC10231, isolated compounds, read-out: Minimum inhibitory concentration (MIC) C. albicans) was 250 µg/mL (≈ 586 µM) and the “Selectivity index C. albicans” value ([1]; in brackets, Vero LC50 vs MIC) was > 0.8. For the same compound, the “MIC T. mentagrophytes” value (T. mentagrophytes) was 12.5 µg/mL (≈ 29.3 µM), the “Anti-fungal activity against four fungi” value [2] was “weak anti-fungal activities” and the “MIC T. rubrum” value (T. rubrum) was 12.5 µg/mL (≈ 29.3 µM). For the same compound, the “MIC Klebsiella pneumoniae” value (Klebsiella pneumoniae) was 62.5 µg/mL (≈ 146 µM).

Source: paper PMC10574767, “Extractives from Artemisia afra with Anti-Bacterial and Anti-Fungal Properties” (Plants, 2023)
